Among the data in publication PMC7997572 (2020) are ΔTm values, retold here.

By ΔTm is commonly meant the shift of the melting midpoint relative to a reference.

Experiment in all cases: CD melting
The subject of test [1] is Tel23-p (DNA, G4) TTAGGGTTAGGGTTAGGGTTAGGGTT
Particulars: K+ (20 mM potassium phosphate, 5 mM KCl; Table S1 note: 5 mM phosphate, 20 mM KCl); pH 7.0; 150 μM compound (10 equiv), 15 μM DNA.

In test [2] the test system is c-Kit1 (DNA, G4) AGGGAGGGCGCTGGGAGGAGGG
The following applies: K+ (20 mM potassium phosphate, 5 mM KCl; Table S1 note: 5 mM phosphate, 20 mM KCl); pH 7.0; 150 μM compound (10 equiv), 15 μM DNA.

For test [3], the system named is Tel23-h (DNA, G4) TTAGGGTTAGGGTTAGGGTTAGGGTT
The following applies: K+ (20 mM potassium phosphate, 5 mM KCl; Table S1 note: 5 mM phosphate, 20 mM KCl); pH 7.0; 150 μM compound (10 equiv), 15 μM DNA.

Test [4] relates to Hairpin (DNA, hairpin) CGAATTCGTTTTCGAATTCG
The following applies: K+ (20 mM potassium phosphate, 5 mM KCl; Table S1 note: 5 mM phosphate, 20 mM KCl); pH 7.0; 300 μM compound (10 equiv), 30 μM DNA.

The subject of test [5] is c-Kit2 (DNA, G4) CGGGCGGGCGCTAGGGAGGGT
The following applies: K+ (20 mM potassium phosphate, 5 mM KCl; Table S1 note: 5 mM phosphate, 20 mM KCl); pH 7.0; 150 μM compound (10 equiv), 15 μM DNA.

Test [6] relates to c-Myc (DNA, G4) TGAGGGTGGGTAGGGTGGGTAA
The following applies: K+ (20 mM potassium phosphate, 5 mM KCl; Table S1 note: 5 mM phosphate, 20 mM KCl), pH 7.0, 150 μM compound (10 equiv), 15 μM DNA.

Consider `CC(C)(C)c1cc(/C=N/NC(=N)N)c(O)c(/C=C2/C(=O)Nc3c2ccc2ccccc32)c1`, for which the ΔTm in test [1] stood at 27.0 ± 1.0 °C; in test [2] it was 1.5 ± 1.0 °C; in test [3], 1.0 ± 1.0 °C.
As for `COc1cc2c(/C=N/NC(=N)N)c(Cl)n(C)c2cc1C`, in test [4], the ΔTm was found to be 7.0 ± 1.0 °C.
Consider `Cc1cc2c(cc1O)/C(=C\c1cccc(/C=N/NC(=N)N)c1)C(=O)N2`, for which the thermal shift (ΔTm) in test [3] is 10.0 ± 1.0 °C.
Regarding `NC(N)=N/N=C/c1c(Cl)n(C/C=C/c2ccccc2)c2ccccc12`, the ΔTm in test [4] came to 0.0 ± 1.0 °C.
On to `O=C1Nc2c(ccc3ccccc23)/C1=C\c1cccc(/C=N/NC2=NCCN2)c1`, for which the ΔTm was 26.0 ± 1.0 °C in test [5], 14.5 ± 1.0 °C in test [2] and greater than 22 °C in test [6] (exact value not determinable).
As to `O=C1Nc2ccc(Cl)cc2/C1=C\c1cccc(/C=N/NC2=NCCN2)c1`, the thermal shift (ΔTm) in test [6] is 14.1 ± 1.0 °C.
